Laboratory results as given in patent publication US20130123358A1, “Metabolic Benefits to Butyrate as a Chronic Diet Supplement” (priority 2009, published 2013).
Where two headings read alike, the source gives them in different places.

Tests used:
[1] = system: skeletal muscle mitochondrial function; test: Fatty acid oxidation and gene expression in skeletal muscle; assay type: in vivo, mouse; details: butyrate 5% w/w in HFD 13 weeks
Description: (§1) Total RNA was extracted from frozen tissues (kept at −80° C.) using Tri-Reagent (T9424, Sigma) as described elsewhere (16). Taqman RT-PCR primer and probe were used to determine mRNA for PGC-1α (Mm00447183_m1), UCP-1 (Mm00494069_m1), PPARδ (Mm01305434_m1) and CPT1b (Mm00487200_m1). The reagents were purchased from Applied Biosystems (Foster City, Calif.). Mouse ribosome 18S rRNA_s1 (without intron-exon junction) was used as an internal control. Reaction was conducted with 7900 HT Fast real time PCR System (Applied Biosystems, Foster City, Calif.).
Mitochondrial function was examined in the skeletal muscle tissue and L6 muscle cells under butyrate treatment. Fatty acid oxidation was monitored in the […] with ^14C-labeled palmitic acid.
Vastus laterais muscle and blood samples were collected from mice at 13 weeks on HFD (18 weeks in age) and examined for fatty acid oxidation, gene expression, and blood lipids. FIG. 7A illustrates the fatty acid oxidation in muscle, measured as a fold change in ^14C-labeled CO2.
In addition, relative fold change in mRNA was used to indicate gene expression of PGC-1α target genes, such as CPT-1b (carnitine palmitoyltransferase-1b) and COX-I (cytochrome c oxidase I), and of the nuclear receptor PPARδ. In FIG. 7C, mitochondrial DNA of COX I was determined by Sybr green RT-PCR. The fatty acid oxidation was associated with expression of PGC-1α target genes, such as CPT-1b (carnitine palmitoyltransferase-1b) and COX-I (cytochrome c oxidase I) (9). Expression of these two genes was increased in the skeletal muscle of butyrate-treated mice (FIGS. 7B and 7C). The nuclear receptor PPARδ promotes fatty acids oxidation in skeletal muscle (29).

[2] = Butyrate concentration in plasma; assay type: in vivo; details: mouse, oral, 5 % w/w in HFD, butyrate 5% w/w in HFD for 16 weeks
Description: The serum fatty acids including butyrate were examined using a protocol described elsewhere (18), and as described below in Example 10. The fatty acids in feces were determined using a protocol as described by Schwarz (19). Triglyceride and cholesterol were measured in the whole blood with the Cardiochek portable test system.
The butyrate concentration was analyzed in plasma collected from the butyrate and control groups in mice fed HFD for 16 weeks. In a fasted condition (overnight fast), the butyrate concentration was 7.23±0.93 μg/ml in the butyrate group and 5.71±0.38 μg/ml in the control. […] Data are presented as means±SE (n=6). * P<0.05; ** P<0.001.

[3] = system: obese C57BL/6J mice on HFD; test: Treatment of obese mice (16 weeks HFD) with butyrate for 5 weeks; assay type: in vivo, mouse
Description: In the above examples, butyrate was administrated together with HFD during the induction of obesity. To test butyrate in the treatment of obesity and insulin resistance, butyrate was administered to obese mice that had been on HFD for 16 weeks. Obesity was induced in C57BL/6J mice fed on HFD for 16 weeks (21 weeks in age). The obese mice were then treated with butyrate through food supplement for 5 weeks. […] In the control group, the body weight was increased by 15.8% (from 35.9 g to 41.6 g) during the same time period. Values are the means±SE (N=8 in each group). * P<0.05.
Fat content was determined in the body using NMR at the end of 5 week treatment with butyrate. Consistent with the change in body weight, the fat content was reduced by 10% in the butyrate group (FIG. 9B). At the end of 5 weeks, ITT was performed after 4 hours fast and HOMA IR was measured as described above. […] Values are the means±SE (N=8 in each group). * P<0.05.

[4] = system: epididymal fat pad; test: White adipose tissue: fat pad morphology and gene expression; assay type: in vivo, mouse
Description: as §1
Fresh tissues (muscle, fat and liver) were collected at 16 weeks of age after 12 weeks butyrate feeding and fixed in 10% neutral buffered formalin solution (HT50-1-2, Sigma). The tissue slides were obtained through serial cross-section cutting at 8 um thickness and processed with a standard procedure. Briefly, the slides were deparaffinated and stained in haematoxylin (#101542, Surgipath) for 15 min, and rinsed in water until sections are blue. Then, slides were stained in Eosin (E4009, Sigma), dehydrated quickly in 95% ethanol and treated with […]. The sections were mounted and photographed with Nikon microscope (Eclipse TS100, Japan).
(§2) The epididymal fat pad was examined to test this effect of butyrate. The tissue was collected at 13 weeks on HFD (18 weeks in age) and used to make a tissue slide (FIG. 3A). After H&E staining, the slide was photographed under a microscope at magnification 20× (FIG. 3A). Gene expression was determined by qRT-PCR at day 8 after induction of cell differentiation of 3T3-L1 cells. Butyrate was used at 100 uM during induction of adipogenesis. Triglycerides in the 3T3-L1 mature adipocyte cells were quantified using Oil red 0 staining at the day 8 post-induction of differentiation (FIG. 3C). In addition, levels of mRNA for leptin, adiponectin, F4/80 (macrophage marker), TNF-α, and iNOS were determined in the epididymal fat and their relative levels are presented in bar figures (FIGS. 3D-3H). In FIGS. 3A-3H, data are represented as mean±SE (n=8). *P<0.05, **P<0.001.

[5] = system: 3T3-L1 cells; test: Adipogenesis in 3T3-L1 cells (qRT-PCR, Oil red O); assay type: cell-based
Description: as §2
To confirm the butyrate effect on adipocytes, 3T3-L1 cells were used to study butyrate activity in vitro. The cells were treated with butyrate during induction of adipogenesis, which was determined by expression of adipocyte-specific genes and triglyceride amount. […] However, expression of leptin was reduced by butyrate (FIG. 3B). The reduction may be a result of a decrease in triglyceride accumulation in the differentiated 3T3-L1 adipocytes (FIG. 3C). The triglyceride level was reduced 50% in the cells treated by butyrate.

[6] = system: class I and class II histone deacetylases (HDACs); details: cited from earlier work
[7] = butyrate 5% w/w in HFD vs control, mRNA
[8] = butyrate 100 uM during induction of adipogenesis, qRT-PCR day 8

CCCC(=O)[O-].[Na+] [sodium butyrate]
fatty acid oxidation in muscle, increase in 14C-labeled CO2 ([1]; 14C-labeled palmitic acid): 200% | CPT-1b expression in skeletal muscle ([1]; mRNA): increased | PPARδ expression in skeletal muscle ([1]; mRNA): also increased | COX-I expression in skeletal muscle ([1]; mitochondrial DNA by Sybr green RT-PCR): increased | concentration at 16 weeks ([2]; fed, read-out: butyrate concentration in plasma, fed condition): 9400 ± 1360 ng/mL | concentration at 16 weeks ([2]; overnight fast, read-out: butyrate concentration in plasma, fasted condition): 7230 ± 930 ng/mL | HOMA-IR, reduction ([3]; 5-week butyrate treatment): 50% | fasting glucose, reduction ([3]; 5-week butyrate treatment): 30% | fasting glucose after treatment ([3]; 5-week butyrate treatment, from 131): 98.6 mg/dL | loss of original body weight ([3]; 5-week treatment with butyrate in food): 10.2% | ITT ([3]; end of 5-week butyrate treatment, 4 hours fast): improved significantly | fat content, reduction ([3]; end of 5-week butyrate treatment, NMR): 10% | body weight after treatment ([3]; end of 5-week butyrate treatment, from 37.6 g): 34.4 g | TNF-α expression in epididymal fat [4, 7]: reduced | iNOS expression in epididymal fat [4, 7]: reduced | leptin expression in epididymal fat [4, 7]: lower level | macrophage marker F4/80 expression in epididymal fat [4, 7]: reduced | epididymal fat pad mass, less than control ([4]; butyrate 5% w/w in HFD, 13 weeks): 80% | adipocyte size, smaller than control ([4]; butyrate 5% w/w in HFD, 13 weeks, H&E): 50% | adiponectin expression in epididymal fat, higher than control ([4]; butyrate 5% w/w in HFD, mRNA): 50% | adipocyte-specific markers (PPARδ, aP2, SREBP, and adiponectin) [5, 8]: not reduced | expression of leptin [5, 8]: reduced | triglyceride level, reduction ([5]; butyrate 100 uM, Oil red O, day 8 post-induction): 50% | effect on class I and class II HDACs [6]: inhibition
